Source: ChEMBL document CHEMBL1201862, “PubChem BioAssay data set” (2004)
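1) Cells in 96-well plates. 2) Compound, 48 h, 5 concentrations. 3) Linear interpolation between surrounding doses. 4) Unreached endpoint = highest concentration. Abbreviation: GI50, concentration required for 50% inhibition of growth.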 Active and inactive are the calls of the source. Rule as the data show it: active = GI50 up to about 1.1 µM and inactive = higher.

Key:
Experiment in all cases: DTP human tumour cell line panel, 48 h
786-0 = system: 786-0
A498 = system: A498
A549 = system: A549
ACHN = system: ACHN
CAKI-1 = system: CAKI-1
CCRF-CEM = system: CCRF-CEM
COLO 205 = system: COLO 205
DU-145 = system: DU-145
EKVX = system: EKVX
HCC 2998 = system: HCC 2998
HCT-116 = system: HCT-116
HCT-15 = system: HCT-15
HL-60 = system: HL-60
HOP-62 = system: HOP-62
HOP-92 = system: HOP-92
HT-29 = system: HT-29
Hs-578T = system: Hs-578T
IGROV-1 = system: IGROV-1
K562 = system: K562
KM12 = system: KM12
LOX IMVI = system: LOX IMVI
M14 = system: M14
MCF7 = system: MCF7
MDA-MB-231 = system: MDA-MB-231
MDA-MB-435 = system: MDA-MB-435
MDA-N = system: MDA-N
MOLT-4 = system: MOLT-4
Malme-3M = system: Malme-3M
NCI-H226 = system: NCI-H226
NCI-H23 = system: NCI-H23
NCI-H522 = system: NCI-H522
NCI/ADR-RES = system: NCI/ADR-RES
OVCAR-3 = system: OVCAR-3
OVCAR-4 = system: OVCAR-4
OVCAR-5 = system: OVCAR-5
OVCAR-8 = system: OVCAR-8
PC-3 = system: PC-3
RPMI-8226 = system: RPMI-8226
RXF 393 = system: RXF 393
SF-268 = system: SF-268
SF-295 = system: SF-295
SF-539 = system: SF-539
SK-MEL-28 = system: SK-MEL-28
SK-MEL-2 = system: SK-MEL-2
SK-MEL-5 = system: SK-MEL-5
SK-OV-3 = system: SK-OV-3
SN12C = system: SN12C
SNB-19 = system: SNB-19
SNB-75 = system: SNB-75
SR = system: SR
SW-620 = system: SW-620
T47D = system: T47D
TK-10 = system: TK-10
U-251 = system: U-251
UACC-257 = system: UACC-257
UO-31 = system: UO-31
NCI-H460 = system: NCI-H460
UACC-62 = system: UACC-62

With `COc1ccc(/C=C2\N/C(=N/N)N=C2Cl)cc1` the GI50 (786-0) was > 100 µM (inactive), the GI50 (A498) was > 100 µM (inactive) and the GI50 (A549) was > 100 µM (inactive). The GI50 (ACHN) was > 100 µM (inactive), the GI50 (CAKI-1) was > 100 µM (inactive) and the GI50 (CCRF-CEM) was > 100 µM (inactive). The GI50 (COLO 205) was > 100 µM (inactive), the GI50 (DU-145) was > 100 µM (inactive) and the GI50 (EKVX) was > 100 µM (inactive). The GI50 (HCC 2998) was > 100 µM (inactive), the GI50 (HCT-116) was > 100 µM (inactive) and the GI50 (HCT-15) was greater than 100 µM. For the same molecule, the GI50 (HL-60) was > 100 µM (inactive), the GI50 (HOP-62) was > 100 µM (inactive) and the GI50 (HOP-92) was > 100 µM (inactive). The GI50 (HT-29) was > 100 µM (inactive), the GI50 (Hs-578T) was > 100 µM (inactive) and the GI50 (IGROV-1) was > 100 µM (inactive). The GI50 (K562) was > 100 µM (inactive), the GI50 (KM12) was > 100 µM (inactive) and the GI50 (LOX IMVI) was > 100 µM (inactive). For the same molecule, the GI50 (M14) was > 100 µM (inactive), the GI50 (MCF7) was > 100 µM (inactive) and the GI50 (MDA-MB-231) was > 100 µM (inactive). The GI50 (MDA-MB-435) was > 100 µM (inactive), the GI50 (MDA-N) was > 100 µM (inactive) and the GI50 (MOLT-4) was > 100 µM (inactive). The GI50 (Malme-3M) was > 100 µM (inactive), the GI50 (NCI-H226) was > 100 µM (inactive) and the GI50 (NCI-H23) was > 100 µM (inactive). The GI50 (NCI-H522) was > 100 µM (inactive), the GI50 (NCI/ADR-RES) was > 100 µM (inactive) and the GI50 (OVCAR-3) was > 100 µM (inactive). For the same molecule, the GI50 (OVCAR-4) was > 100 µM (inactive), the GI50 (OVCAR-5) was > 100 µM (inactive) and the GI50 (OVCAR-8) was > 100 µM (inactive). For the same molecule, the GI50 (PC-3) was > 100 µM (inactive), the GI50 (RPMI-8226) was > 100 µM (inactive) and the GI50 (RXF 393) was > 100 µM (inactive). For the same molecule, the GI50 (SF-268) was > 100 µM (inactive), the GI50 (SF-295) was > 100 µM (inactive) and the GI50 (SF-539) was > 100 µM (inactive). The GI50 (SK-MEL-28) was > 100 µM (inactive), the GI50 (SK-MEL-2) was > 100 µM (inactive) and the GI50 (SK-MEL-5) was > 100 µM (inactive). The GI50 (SK-OV-3) was > 100 µM (inactive), the GI50 (SN12C) was > 100 µM (inactive) and the GI50 (SNB-19) was > 100 µM (inactive). For the same molecule, the GI50 (SNB-75) was > 100 µM (inactive), the GI50 (SR) was > 100 µM (inactive) and the GI50 (SW-620) was > 100 µM (inactive). For the same molecule, the GI50 (T47D) was > 100 µM (inactive), the GI50 (TK-10) was > 100 µM (inactive) and the GI50 (U-251) was > 100 µM (inactive). The GI50 (UACC-257) was > 100 µM (inactive) and the GI50 (UO-31) was > 100 µM (inactive).

`O=C1OC[C@@H]2Cc3c([nH]c4ccccc34)[C@@H](c3cc(O)c(O)c(O)c3)N12` was tested, and the GI50 (786-0) was 20.6 µM (inactive), the GI50 (A498) was 12 µM (inactive) and the GI50 (A549) was > 100 µM (inactive). The GI50 (ACHN) was 31.2 µM (inactive), the GI50 (CAKI-1) was 8.67 µM (inactive) and the GI50 (CCRF-CEM) was 12.6 µM (inactive). For the same molecule, the GI50 (COLO 205) was 23.4 µM (inactive), the GI50 (DU-145) was 68.2 µM (inactive) and the GI50 (EKVX) was 44.5 µM (inactive). For the same molecule, the GI50 (HCC 2998) was 48.1 µM (inactive), the GI50 (HCT-116) was 25.3 µM (inactive) and the GI50 (HCT-15) was 31 µM. The GI50 (HL-60) was 2.72 µM (inactive), the GI50 (HOP-62) was 21.4 µM (inactive) and the GI50 (HOP-92) was > 100 µM (inactive). The GI50 (HT-29) was 31 µM (inactive), the GI50 (Hs-578T) was 15.7 µM (inactive) and the GI50 (IGROV-1) was 25 µM (inactive). The GI50 (K562) was 3.91 µM (inactive), the GI50 (KM12) was 44.5 µM (inactive) and the GI50 (M14) was 15.2 µM (inactive). For the same molecule, the GI50 (MCF7) was 21.2 µM (inactive), the GI50 (MDA-MB-231) was 20.7 µM (inactive) and the GI50 (MDA-MB-435) was 2.69 µM (inactive). For the same molecule, the GI50 (MDA-N) was 5.97 µM (inactive), the GI50 (MOLT-4) was 32.6 µM (inactive) and the GI50 (Malme-3M) was 4.37 µM (inactive). For the same molecule, the GI50 (NCI-H226) was 13.5 µM (inactive), the GI50 (NCI-H23) was 29.4 µM (inactive) and the GI50 (NCI-H460) was 37.8 µM (inactive). The GI50 (NCI-H522) was 5.09 µM (inactive), the GI50 (NCI/ADR-RES) was 21.8 µM (inactive) and the GI50 (OVCAR-4) was 12.9 µM (inactive). The GI50 (OVCAR-5) was 19.7 µM (inactive), the GI50 (OVCAR-8) was 16.4 µM (inactive) and the GI50 (PC-3) was 31.3 µM (inactive). For the same molecule, the GI50 (RPMI-8226) was 27.5 µM (inactive), the GI50 (RXF 393) was 18.9 µM (inactive) and the GI50 (SF-268) was 34.9 µM (inactive). For the same molecule, the GI50 (SF-295) was 2.57 µM (inactive), the GI50 (SF-539) was 18.9 µM (inactive) and the GI50 (SK-MEL-28) was 17.3 µM (inactive). For the same molecule, the GI50 (SK-MEL-2) was 3.14 µM (inactive), the GI50 (SK-MEL-5) was 8.39 µM (inactive) and the GI50 (SK-OV-3) was > 100 µM (inactive). For the same molecule, the GI50 (SN12C) was 26.9 µM (inactive), the GI50 (SNB-19) was 24 µM (inactive) and the GI50 (SNB-75) was 3.29 µM (inactive). For the same molecule, the GI50 (SR) was 13.9 µM (inactive), the GI50 (SW-620) was 21.3 µM (inactive) and the GI50 (T47D) was 37 µM (inactive). For the same molecule, the GI50 (TK-10) was 41.5 µM (inactive), the GI50 (U-251) was 25.3 µM (inactive) and the GI50 (UACC-257) was 2.99 µM (inactive). For the same molecule, the GI50 (UACC-62) was 8.93 µM (inactive) and the GI50 (UO-31) was 27.3 µM (inactive).

`CCCCCCCCCCCCCCCCCC(=O)OCC(COC1OC(CS(=O)(=O)O)C(O)C(O)C1O)OC(=O)CCCCCCCCCCCCCCCCC` (stereo not drawn) was tested, and the GI50 (786-0) was > 100 µM (inactive), the GI50 (A498) was > 100 µM (inactive) and the GI50 (A549) was > 100 µM (inactive). The GI50 (ACHN) was > 100 µM (inactive), the GI50 (CAKI-1) was > 100 µM (inactive) and the GI50 (CCRF-CEM) was > 100 µM (inactive). For the same molecule, the GI50 (COLO 205) was > 100 µM (inactive), the GI50 (DU-145) was > 100 µM (inactive) and the GI50 (EKVX) was > 100 µM (inactive). For the same molecule, the GI50 (HCC 2998) was > 100 µM (inactive), the GI50 (HCT-116) was > 100 µM (inactive) and the GI50 (HCT-15) was greater than 100 µM. For the same molecule, the GI50 (HL-60) was > 100 µM (inactive), the GI50 (HOP-62) was > 100 µM (inactive) and the GI50 (HOP-92) was 45.2 µM (inactive). The GI50 (HT-29) was > 100 µM (inactive), the GI50 (Hs-578T) was > 100 µM (inactive) and the GI50 (IGROV-1) was > 100 µM (inactive). The GI50 (K562) was > 100 µM (inactive), the GI50 (KM12) was > 100 µM (inactive) and the GI50 (LOX IMVI) was > 100 µM (inactive). The GI50 (M14) was > 100 µM (inactive), the GI50 (MCF7) was > 100 µM (inactive) and the GI50 (MDA-MB-231) was > 100 µM (inactive). For the same molecule, the GI50 (MDA-MB-435) was > 100 µM (inactive), the GI50 (MDA-N) was > 100 µM (inactive) and the GI50 (MOLT-4) was > 100 µM (inactive). The GI50 (Malme-3M) was > 100 µM (inactive), the GI50 (NCI-H226) was > 100 µM (inactive) and the GI50 (NCI-H23) was > 100 µM (inactive). For the same molecule, the GI50 (NCI-H460) was > 100 µM (inactive), the GI50 (NCI-H522) was > 100 µM (inactive) and the GI50 (NCI/ADR-RES) was > 100 µM (inactive). The GI50 (OVCAR-3) was > 100 µM (inactive), the GI50 (OVCAR-4) was > 100 µM (inactive) and the GI50 (OVCAR-5) was > 100 µM (inactive). The GI50 (OVCAR-8) was > 100 µM (inactive), the GI50 (PC-3) was > 100 µM (inactive) and the GI50 (RPMI-8226) was > 100 µM (inactive). The GI50 (RXF 393) was > 100 µM (inactive), the GI50 (SF-268) was > 100 µM (inactive) and the GI50 (SF-295) was > 100 µM (inactive). The GI50 (SF-539) was > 100 µM (inactive), the GI50 (SK-MEL-28) was > 100 µM (inactive) and the GI50 (SK-MEL-5) was > 100 µM (inactive). The GI50 (SK-OV-3) was > 100 µM (inactive), the GI50 (SN12C) was > 100 µM (inactive) and the GI50 (SNB-19) was > 100 µM (inactive). For the same molecule, the GI50 (SNB-75) was 10.4 µM (inactive), the GI50 (SR) was 0.222 µM (active) and the GI50 (SW-620) was > 100 µM (inactive). For the same molecule, the GI50 (T47D) was > 100 µM (inactive), the GI50 (TK-10) was > 100 µM (inactive) and the GI50 (U-251) was > 100 µM (inactive). The GI50 (UACC-257) was > 100 µM (inactive) and the GI50 (UACC-62) was > 100 µM (inactive).
